# Experimental data reported in ChEMBL document CHEMBL3217599, “Selective antitumour activity and ER molecular docking studies of newly synthesizedd-homo fused steroidal tetrazoles” (Medchemcomm, 2013).
# What was measured:
# [1] = tested on: PC-3; test: Cytotoxicity against human PC3 cells expressing estrogen receptor after 48 hrs by MTT assay; type: functional, cell-based; settings: PC-3, 48 h
# [2] = tested on: HeLa; test: Cytotoxicity against human HeLa cells expressing estrogen receptor after 48 hrs by MTT assay; type: functional, cell-based
# [3] = tested on: K562; test: Cytotoxicity against human K562 cells expressing estrogen receptor after 48 hrs by MTT assay; type: functional, cell-based; settings: K562, 48 h
# [4] = tested on: MRC5; test: Cytotoxicity against human MRC5 cells expressing estrogen receptor after 48 hrs by MTT assay; type: cell-based; settings: MRC5, 48 h
# [5] = tested on: HT-29; test: Cytotoxicity against human HT-29 cells expressing estrogen receptor after 48 hrs by MTT assay; type: functional, cell-based; settings: HT-29, 48 h
# [6] = tested on: MDA-MB-231; test: Cytotoxicity against estrogen receptor-deficient human MDA-MB-231 cells after 48 hrs by MTT assay; type: functional, cell-based; settings: MDA-MB-231, 48 h
# [7] = tested on: MCF7; test: Cytotoxicity against human MCF7 cells expressing estrogen receptor after 48 hrs by MTT assay; type: functional, cell-based; settings: MCF7, 48 h
# [8] = tested on: PC-3; test: Ratio of doxorubicin IC50 to compound IC50 for human PC3 cells expressing estrogen receptor after 48 hrs by MTT assay; type: functional
structure (smiles),measurement,setting,value
CC(=O)O[C@H]1CC[C@@]2(C)C(=CC[C@H]3[C@@H]4Cc5nnnn5C[C@@]4(C)CC[C@@H]32)C1,IC50,[1],79 µM
same,IC50,[2],> 100 µM
same,IC50,[3],45.2 µM
same,IC50,[4],> 100 µM
same,IC50,[5],> 100 µM
same,IC50,[6],> 100 µM
same,IC50,[7],56.2 µM
C[C@]12CC[C@@H]3c4ccc(OCc5ccccc5)cc4CC[C@H]3[C@@H]1Cc1nnnn1C2,IC50,[1],65.5 µM
same,IC50,[2],> 100 µM
same,IC50,[3],> 100 µM
same,IC50,[4],> 100 µM
same,IC50,[5],> 100 µM
same,IC50,[6],> 100 µM
same,IC50,[7],12.6 µM
COc1cccc2c1C(=O)c1c(O)c3c(c(O)c1C2=O)C[C@@](O)(C(=O)CO)C[C@@H]3O[C@H]1C[C@H](N)[C@H](O)[C@H](C)O1 [DOXORUBICIN],IC50,[3],0.36 µM
same,IC50,[5],0.32 µM
same,IC50,[7],0.75 µM
CC(=O)O[C@H]1CC[C@@]2(C)C(=CC[C@H]3[C@@H]4Cc5nnnn5[C@H](C)[C@@]4(C)CC[C@@H]32)C1,IC50,[1],15.3 µM
same,IC50,[2],> 100 µM
same,IC50,[3],11.1 µM
same,IC50,[4],> 100 µM
same,IC50,[5],> 100 µM
same,IC50,[6],89.6 µM
same,IC50,[7],25.4 µM
same,Ratio IC50,[8],>6
C[C@H]1n2nnnc2C[C@H]2[C@@H]3CCc4cc(OCc5ccccc5)ccc4[C@H]3CC[C@@]21C,IC50,[1],> 100 µM
same,IC50,[2],> 100 µM
same,IC50,[3],> 100 µM
same,IC50,[4],> 100 µM
same,IC50,[5],18 µM
same,IC50,[6],> 100 µM
same,IC50,[7],4.58 µM
